Laboratory results reported in patent publication US12582720B2, “Compound for preventing or treating lipid metabolism-related diseases” (Fudan University, priority 2020, dated 2026).

Columns and labels:
[1] = tested on: lipid droplets in 3T3-L1 fat precursor cell differentiated fat cells; assay: Lipid droplets in 3T3-L1 fat precursor cell differentiated fat cells; format: cell-based, mouse; conditions: 3T3-L1 differentiated fat cells, 24 h
NASH mice = assay: Effect of the compound on NASH mouse model (CDAHFD); format: in vivo
Procedure: 15-micrometer cryosections were obtained from the liver (see “BODIPY staining of tissues” and processed for visualization of fibrosis by picro-sirius red staining as described in the literature (Sookoian S et al., Fatty Liver Disease Progresses into Severe NASH when Physiological Mechanisms of Tissue Homeostasis Collapse. Ann Hepatol 2018; 17:182-186.). The liver cryosections were washed with 1×PBS and then incubated at room temperature for 1 hour with the solution containing 0.1% vol/vol Direct Red 80 Direct Red 80 (for staining collagen in red as an indicator for liver fibrosis) and 0.04% Fast Green (Sigma-Aldrich, cat. no. F7258, for general protein staining as a background) in saturated aqueous solution of picric acid (Sigma., cat. no. P6744-1GA). The samples were imaged by using an Olympus inverted fluorescence microscope IX73, and the histological fibrosis images were analyzed by the imageJ software.
Experimental animals: ten-week-old C57BL/6 male mice were obtained from Hangzhou Ziyuan Inc. The mice had ad libitum access to water and a choline-deficient, L-amino acid-defined, high-fat diet (CDAHFD) containing 60% kcal fat obtained from Changzhou Shuyishuer Inc. for twelve weeks (including the two-week compound-injection period) to generate the non-alcoholic steatohepatitis (NASH) models.
(§1) Mice were randomly divided into 7 groups, wherein 8 mice in each group, and the mice in each group were subjected to intraperitoneal injection to administer: (1) only vehicle (no DMSO) group: 0% DMSO+39% PEG300 (Selleck, cat. no. S6704)+5% Tween-80 (Selleck, cat. no. S6702)+56% distilled water, (2) DMSO group: 1% DMSO+39% PEG300+5% Tween-80+55% H2O (DMSO vehicle), (3) C3 group: Compound 3A was in DMSO vehicle, (4) C4 group: Compound 4A in DMSO vehicle, (5) SIII group: Sudan III DMSO vehicle, (6) GW5074 group: Compound A1 in DMSO vehicle, (7) DP group: Compound A5 in DMSO vehicle. For groups (3)-(7), the compound (30 mg/kg, administration volume 150 μL) was administered through intraperitoneally injection for consecutive 2 weeks, and once a day. The food and water intake were measured with an analytical electronic balance.
(§2) 24 hours after the time point of the last injection, end point maxillary surface blood sampling was performed on each mouse. All mice were Euthanized by cervical dislocation, and then tissue sample (e.g., liver samples) were obtained and stored in Eppendorf tubes at −80° C. for assay.
(§3) 12 days after initiation of administration, each mouse was scanned by a minispec nuclear magnetic resonance (NMR) instrument (Bruker LF50 II “Minispec” body composition analyzer, Bruker Optics) that was designed for experimental animals, and based on the measurement of solid and liquid parts of the samples, the body fat and lean body weight were determined by this device.
(§4) Serum: Tail vein blood samples (30-50 μL) were left to coagulate in […] blood collection tubes (Jiangsu Kangjian Medical Products Co., Ltd., model KJ002) at room temperature without interference, and then centrifuged at 2,000×g for 10 minutes at 4° C. to remove the clot. Supernatant was collected to obtain the serum.
(§5) Liver: Liver samples were obtained as described in (2). 100 mg of liver tissue was homogenized in 0.9 mL of absolute alcohol under ice-cold conditions, and then centrifuged (2,500 r.p.m/min, 10 min). Supernatant was collected, and then stored at −80° C.
(§6) The kits were used according to the instruction from manufacturer (TAG: TG kit, cat. no. A110-1-1; TC: T-CHO kit, cat. no. A111-1. FFA: NEFA kit, cat. No. A042-2-1; they were all from Nanjing Jiancheng Bioengineering Institute). TAG, TC and FFA levels in serum and liver samples were determined.

[2] = tested on: lipid droplets in LC3B knockout HEK293T cells; assay: Lipid droplets in LC3B knockout HEK293T cells; format: cell-based, human; conditions: 5 μM
Procedure: The effect of conjugated compounds (Compound 1A, Compound 2A, Compound 3A or Compound 4A at a concentration of 5 μM) on lipid droplets in LC3B knockout HEK293T cells was tested by a method similar to Example 2.

db/db mice = assay: Effect of the compound on db/db mouse; format: in vivo
Source text: Experimental animals: nineteen-week-old db/db male mice (C57BL/6J-Lepr^db/Lepr^db) were obtained from Shanghai Model Organisms Co., Ltd., and acclimatized for at least 1 week before experiments. The mice had ad libitum access to standard chow and water.
Normal control: The C57BL/6 male mice fed on standard irradiated chow diet (Shuyishuer Inc. cat. no. D12450J) from Changzhou Shuyishuer Biotechnology Co., Ltd. (Shuyishuer Inc.) were used as the normal control.
as §1
Bodyweight was weighed every day.
If time permitted, tail vein blood (30-50 μL) was collected every 1-3 days.
as §2, §3, §4, §5, §6
According to the lipidomic method as described above, the contents of liver total lipid, glycerolipid, sterol lipid, neutral sphingolipid and polar lipid were analyzed. The log 2-fold change (log2 FC) and statistical significance (p-value) relative to the DMSO group were calculated.

[3] = tested on: autophagosome-lipid droplet colocalization in MEF cells; assay: Colocalization of autophagosome and lipid droplets in mCherry-LC3B transfected MEF cells; format: cell-based, mouse; conditions: 5 μM, 3 h, compared to DMSO control
Procedure: (1) In MEF cells, mCherry-LC3B was expressed by cDNA plasmid transfection.
(2) OA was added to the culture medium 30 hours after transfection to induce lipid droplets.
(3) Compounds were added to treat cells 6 hours after induction.
(4) 3 hours after compounds addition, cells were fixed and BODIPY stained.
(5) The coverslips laid in the multi-well plates were removed, and imaged with the Zeiss 880 confocal microscope after mounted to observe the aggregation of LC3 puncta around the lipid droplets.
In MEF cells, mCherry-LC3B was expressed by cDNA plasmid transfection. At 30th hour of overexpression, OA was added into cells for lipid droplet induction. 6 hours later, the compound was added for 3 hours' treatment, and then cells were subjected to immunostaining. […] Lipid droplets (green) were stained with BODIPY stain, and nucleus were indicated with DAPI stain. […] In FIG. 24, the colocalized autophagosome-lipid droplet was marked with circles.

LC3B = LC3B (Homo sapiens, UniProt Q9GZQ8); assay: MST detection of affinity activity with LC3B; format: binding; parameters: His8 (with TEV site) (N); made in house; host or cells: Escherichia coli BL21(DE3)pLysS; conditions: MST; read-out: Kd (μM), equilibrium dissociation constant between the conjugated compound and LC3B
Procedure: The recombinant GST-LC3B proteins were prepared and purified, dialyzed into 1×PBS, and then labelled with the red fluorophore with the protein labeling kit RED-NHS (Nanotemper, cat. no. L001).
The MST experiments were performed using the Monolith NT.115 instrument (NanoTemper Technologies). The reaction buffer contains 20 mM HEPES, pH 7.4, 150 mM NaCl, and the protein concentration was 500 nM. The MST data were collected under 40% infrared laser power and 20% light-emitting diode power. The data were analyzed by Nanotemper software.

## O=c1cc(-c2ccccc2)c2c(OCCCCCCCCCCOc3ccc4ccccc4c3/N=N/c3ccc(/N=N/c4ccccc4)cc3)cc(O)cc2o1 [Compound 4A, 7-hydroxy-4-phenyl-5-((10-((1-((E)-(4-((E)-phenyldiazenyl)phenyl)diazenyl)naphthalen-2-yl)oxy)decyl)oxy)-2H-chromen-2-one]
[1]; 5 μM + NH4Cl 5 mM
  effect of the compound on lipid droplets under the treatment of NH4Cl: blocked
[1]; 5 μM
  amount of lipid droplets: could reduce
  size of lipid droplets: could change
NASH mice; 30 mg/kg ip
  liver weight: significantly reduced
  ratio of body fat/lean body weight: significantly reduced
  serum and liver TAG levels: reduced
  serum and liver TC levels: reduced
NASH mice; 30 mg/kg ip once a day, 2 weeks
  body weight: significantly reduced
NASH mice; 30 mg/kg ip, 14 days
  liver lipid droplets: significantly reduced
NASH mice; 30 mg/kg ip, 14 days, compared with control compound
  degree of interstitial fibrosis in liver tissue (picro-sirius staining): significantly reduced
[2]
  reduction of lipid droplets induced by conjugated compounds after knockout of LC3B gene: largely blocked
db/db mice
  body weight-normalized food intake: marginally significant increase
db/db mice; 30 mg/kg ip
  FFA levels in serum and liver: significantly reduced
  body weight-normalized food and water intake: no significant reduction
db/db mice; 30 mg/kg ip once a day, within 2 weeks
  weight loss (total body weight): about 15%
db/db mice; 30 mg/kg ip, 12 days, vs DMSO group
  ratio of body fat/lean body weight: significantly reduced
db/db mice; 30 mg/kg ip, 14 days
  amount and size of liver lipid droplets (BODIPY493/503): significantly reduced
db/db mice; 30 mg/kg ip, 14 days, vs DMSO group
  liver weight: significantly reduced
db/db mice; 30 mg/kg ip, vs DMSO group
  TAG levels in liver and serum: significantly reduced
  TC levels in liver and serum: significantly reduced
db/db mice; absolute quantitative lipidomics, vs DMSO group
  reduction of liver total lipid concentration (liver lipid level): 41.5±13.9%
db/db mice; lipidomics
  TAG in liver: significantly reduced
  most glycerolipids, sterol lipids and neutral sphingolipids in liver: reduced
  other major neutral lipids, cholesteryl ester (ChE) and diglyceride (DG) in liver: slightly reduced
  polar lipids, e.g., glycerophospholipids in liver: did not reduce
db/db mice; liver lipidomics
  PE and PI: unaffected
  TAG and ChE with different chain carbon numbers or saturated bond numbers: all reduced
[3]
  ratio of colocalization of red and green aggregation point (autophagosome-lipid droplet): significantly increased
LC3B
  Kd: 0.39 µM
